# Laboratory results published in patent publication US20250120399A1, “METHODS AND COMPOSITIONS FOR ALTERING METABOLITES IN VITIS SPP. AND PREVENTING PESTS AND PATHOGENS” (Impello Biosciences, Inc., priority 2022, published 2025).
# Where “and” joins values, the source holds several entries; their conditions need not be identical. Identical values can stand only once.
# What was measured:
# [1] = test system: Grapevine (Malbec variety); assay: Leaf sap Brix by refractometer, Malbec field trial (Example 1); type: in vivo, Vitis vinifera; parameters: % BRIX, Plant #1 / % BRIX, Plant #2 / % BRIX, Plant #3: reference not given here; conditions: for AVG Brix, Plant #1 / AVG Brix, Plant #2 / AVG Brix, Plant #3: average of 25 leaves; for Brix, individual leaves, Plant #1 / Brix, individual leaves, Plant #2 / Brix, individual leaves, Plant #3: leaf sap; for Brix, individual leaves, Plant #1: MDJ treated Plant #1, leaf no. 1-25; for Brix, individual leaves, Plant #2: MDJ treated Plant #2, leaf no. 1-25; for Brix, individual leaves, Plant #3: MDJ treated Plant #3, leaf no. 1-25
# Description: An eliciting composition and methods of use to alter metabolite production were tested on 6 acres of a Malbec variety planted in 1999 in Napa Valley, California. Plants were spaced 5′×10′ (900 vines per acre) and grouped into randomized blocks of 900 vines per group, with six replicates covering three acres for the treatment group, and six replicates covering three acres for the control group. The treatment group received two applications of 32 oz of MDJ applied at a rate of 100 gallons per acre (2.5 mM), once prior to veraison on Aug. 9, 2021 and again when 5-10% of berries were starting to blush (veraison) using a ground spray rig (backpack sprayer). From within each replicate, three plants were selected at random, and 25 leaves from each plant were randomly selected for analysis. The internal sap of the leaves was tested using a refractometer on the days shown below in Table 4 and FIG. 1. Data from each replicate was averaged (25 leaves from each plant, 3 plants).
# Aspergillus carbonarius = assay: Sour rot incidence and severity on black seedless grapes, 2022 field trial (Example 5); type: in vivo; conditions: for Sour rot clusters of High severity (PESSEV) / Sour rot clusters of Low severity (PESSEV) / Sour rot clusters of Medium severity (PESSEV): ABCDE; for Sour rot clusters of High severity (PESSEV): Aug. 10, 2022, high = >51%; for Sour rot clusters of Low severity (PESSEV): Aug. 10, 2022, low = <40% of cluster area; for Sour rot clusters of Medium severity (PESSEV): Aug. 10, 2022, medium = 41%-50%; for Sour rot infected clusters (PESINC): applications ABCDE, rated Aug. 10, 2022
# Description: Field trials were conducted in California 2022 (a dry year) to investigate the efficacy of MDJ in preventing Sour Rot caused by Aspergillus carbonarius (also known as summer bunch rot, abbreviated ASPECA in Table 7). Black seedless grapes (Vitis labrusca) were used in this trial. Four vines were used per plot. The plots were arranged in a randomized complete block design with six replicates (plots) per treatment. The plots were sprayed five times (ABCDE) at a rate of 500 gal/AC.
# Treatments consisted of MDJ at 32 oz and 48 oz/A. A treatment of Regalia® at 1.5 qt/100 gal and Stargus® at 2 qt/100 gal was included for comparative purposes. Application D occurred at 5-10% veraison. Application E occurred at 40% veraison.
# Botrytis and powdery mildew were absent for the trial. An evaluation of sour rot was completed before the harvest. The area of an infected cluster was estimated into a percentage and categorized into three levels of severity: low (<40%), medium (41%-50%), and high (>51%). The majority of individual infected clusters had low severity.
# [2] = Replicate 4, Oct. 5, 2021, MDJ treated Plant #1
# [3] = Replicate 4, Oct. 5, 2021, MDJ treated Plant #2
# [4] = Replicate 4, Oct. 5, 2021, MDJ treated Plant #3
# [5] = Replicate 5, Oct. 10, 2021, MDJ treated Plant #1
# [6] = Replicate 5, Oct. 10, 2021, MDJ treated Plant #2
# [7] = Replicate 5, Oct. 10, 2021, MDJ treated Plant #3
# [8] = Replicate 6, Oct. 30, 2021, MDJ treated Plant #1
# [9] = Replicate 6, Oct. 30, 2021, MDJ treated Plant #2
# [10] = Replicate 6, Oct. 30, 2021, MDJ treated Plant #3
# [11] = Replicate 4 sampled on Oct. 5, 2021
# [12] = Replicate 5 sampled on Oct. 10, 2021
# [13] = Replicate 6 sampled on Oct. 30, 2021
smiles,measurement,setting,value
"CCCCCC1C(=O)CCC1CC(=O)OC (stereo not shown) [MDJ, methyl dihydrojasmonate]",AVG Brix of 25 leaves,"[1]; Replicate 3 sampled on Sep. 30, 2021, MDJ treated Plant #3",29.5
same,"% BRIX, Plant #1",[1]; [2],119.5%
same,"% BRIX, Plant #2",[1]; [3],119.2%
same,"% BRIX, Plant #3",[1]; [4],120.8%
same,"% BRIX, Plant #1",[1]; [5],111.4%
same,"% BRIX, Plant #2",[1]; [6],111.4%
same,"% BRIX, Plant #3",[1]; [7],107.3%
same,"% BRIX, Plant #1",[1]; [8],99.2%
same,"% BRIX, Plant #2",[1]; [9],110.1%
same,"% BRIX, Plant #3",[1]; [10],103.2%
same,"AVG Brix, Plant #1",[1]; [2],29.9
same,"AVG Brix, Plant #2",[1]; [3],29.8
same,"AVG Brix, Plant #3",[1]; [4],30.2
same,"AVG Brix, Plant #1",[1]; [5],27.9
same,"AVG Brix, Plant #2",[1]; [6],27.8
same,"AVG Brix, Plant #3",[1]; [7],26.8
same,"AVG Brix, Plant #1",[1]; [8],24.8
same,"AVG Brix, Plant #2",[1]; [9],27.5
same,"AVG Brix, Plant #3",[1]; [10],25.8
same,"Brix, individual leaves, Plant #1","[1]; Replicate 4 sampled on Oct. 5, 2021, two applications of 32 oz MDJ at 100 gal/acre (2.5 mM)",30.6 and 29.8 (2×) and 29.0 and 29.5 (6×) and 32.3 and 28.7 and 28.9 (3×) and 29.7 (2×) and 28.8 and 30.0 and 30.4 and 33.3 and 29.9 (2×) and 31.8 and 29.6
same,"Brix, individual leaves, Plant #2",[1]; [11],29.3 (2×) and 28.0 and 26.9 and 28.5 and 29.9 (2×) and 29.8 (3×) and 30.1 and 28.9 (2×) and 29.4 and 28.3 and 33.3 and 33.0 and 32.9 and 32.5 and 28.8 and 30.4 and 29.5 (2×) and 29.6 and 28.7
same,"Brix, individual leaves, Plant #3",[1]; [11],31.9 and 29.8 (2×) and 29.2 and 29.3 and 29.9 (4×) and 28.5 and 30.4 and 29.5 (2×) and 31.0 and 32.5 and 32.9 and 29.0 and 28.7 and 28.8 and 30.1 and 30.3 and 29.6 and 33.0 and 32.8 and 28.9
same,"Brix, individual leaves, Plant #1",[1]; [12],28.7 and 26.1 and 26.2 and 27.2 and 27.7 and 27.6 (2×) and 26.4 (2×) and 28.2 and 28.8 (3×) and 25.8 and 28.5 and 26.0 and 26.9 and 29.5 (2×) and 27.4 and 32.0 and 23.8 and 29.9 and 30.5 and 28.0
same,"Brix, individual leaves, Plant #2",[1]; [12],28.5 (2×) and 27.5 (2×) and 29.1 and 26.8 and 26.4 and 27.8 and 29.9 and 28.7 (2×) and 29.4 and 28.3 and 29.5 and 28.6 and 25.0 and 27.6 and 25.9 and 29.8 and 28.4 and 28.0 and 26.0 and 26.1 and 27.2 and 27.0
same,"Brix, individual leaves, Plant #3",[1]; [12],26.8 (3×) and 24.5 and 26.3 (2×) and 25.5 (3×) and 25.3 and 28.5 (4×) and 26.7 and 25.8 and 27.0 and 28.7 and 26.9 and 29.8 and 27.5 (2×) and 26.0 and 26.5 and 24.8
same,"Brix, individual leaves, Plant #1",[1]; [13],23.4 and 23.8 (2×) and 24.0 (4×) and 26.0 (2×) and 25.0 (3×) and 25.1 and 26.6 (2×) and 25.6 and 24.5 (2×) and 24.8 (2×) and 24.7 and 23.9 and 22.8 and 25.5 and 26.5
same,"Brix, individual leaves, Plant #2",[1]; [13],28.7 (2×) and 24.5 and 24.1 and 26.0 (2×) and 28.0 (3×) and 27.1 and 26.4 and 29.1 and 25.5 and 28.5 (2×) and 26.9 and 29.8 (2×) and 29.9 and 27.3 (2×) and 24.9 and 26.6 and 29.5 and 29.0
same,"Brix, individual leaves, Plant #3",[1]; [13],25.0 (2×) and 23.1 and 22.9 (2×) and 28.1 and 25.8 and 26.9 and 25.5 and 25.6 (2×) and 26.2 and 23.9 (2×) and 28.8 and 26.3 and 27.2 and 27.3 and 26.1 and 24.6 and 25.7 and 29.9 and 28.4 and 25.4 and 24.9
same,Sour rot clusters of High severity (PESSEV),Aspergillus carbonarius; 32 oz/a,1.3— NUMBER
same,Sour rot clusters of Low severity (PESSEV),Aspergillus carbonarius; 32 oz/a,7.2— NUMBER
same,Sour rot clusters of Medium severity (PESSEV),Aspergillus carbonarius; 32 oz/a,5.3— NUMBER
same,Sour rot infected clusters (PESINC),Aspergillus carbonarius; 32 oz/a,13.8— NUMBER
same,Sour rot clusters of High severity (PESSEV),Aspergillus carbonarius; 48 oz/a,0.8— NUMBER
same,Sour rot clusters of Low severity (PESSEV),Aspergillus carbonarius; 48 oz/a,6.2— NUMBER
same,Sour rot clusters of Medium severity (PESSEV),Aspergillus carbonarius; 48 oz/a,5.3— NUMBER
same,Sour rot infected clusters (PESINC),Aspergillus carbonarius; 48 oz/a,12.3— NUMBER
same,Control of sour rot compared to the rest of the treatments,Aspergillus carbonarius; higher rate of MDJ Elicitor (48 oz/A),most effective at controlling sour rot
